Values quoted from earlier work in patent publication US20230338587A1, “METHOD OF TREATING PSMA-EXPRESSING CANCERS” (ADVANCED ACCELERATOR APPLICATIONS INTERNATIONAL SA, priority 2020, published 2023).

Legend:
[1] = tested on: cynomolgus monkey TGF-β
[2] = tested on: rodent TGF-β

## XOMA 089: fully human monoclonal antibody that specifically binds and neutralizes TGF-beta 1 and 2 ligands
[1]
  cross-reactivity with cynomolgus monkey TGF-β: cross-reacts
[2]
  cross-reactivity with rodent TGF-β: cross-reacts
